Data from PMC3368905, “Inhibition of Ion Channels and Heart Beat in Drosophila by Selective COX-2 Inhibitor SC-791” (PLoS ONE, 2012).

Biological target: T1, Shab channel (IKS, delayed rectifier, Drosophila Kv2) (Drosophila melanogaster, UniProt P17970)
T1 construct: native channel in larval body-wall muscles (fiber 12)
T1 sequence (P17970 1-1015): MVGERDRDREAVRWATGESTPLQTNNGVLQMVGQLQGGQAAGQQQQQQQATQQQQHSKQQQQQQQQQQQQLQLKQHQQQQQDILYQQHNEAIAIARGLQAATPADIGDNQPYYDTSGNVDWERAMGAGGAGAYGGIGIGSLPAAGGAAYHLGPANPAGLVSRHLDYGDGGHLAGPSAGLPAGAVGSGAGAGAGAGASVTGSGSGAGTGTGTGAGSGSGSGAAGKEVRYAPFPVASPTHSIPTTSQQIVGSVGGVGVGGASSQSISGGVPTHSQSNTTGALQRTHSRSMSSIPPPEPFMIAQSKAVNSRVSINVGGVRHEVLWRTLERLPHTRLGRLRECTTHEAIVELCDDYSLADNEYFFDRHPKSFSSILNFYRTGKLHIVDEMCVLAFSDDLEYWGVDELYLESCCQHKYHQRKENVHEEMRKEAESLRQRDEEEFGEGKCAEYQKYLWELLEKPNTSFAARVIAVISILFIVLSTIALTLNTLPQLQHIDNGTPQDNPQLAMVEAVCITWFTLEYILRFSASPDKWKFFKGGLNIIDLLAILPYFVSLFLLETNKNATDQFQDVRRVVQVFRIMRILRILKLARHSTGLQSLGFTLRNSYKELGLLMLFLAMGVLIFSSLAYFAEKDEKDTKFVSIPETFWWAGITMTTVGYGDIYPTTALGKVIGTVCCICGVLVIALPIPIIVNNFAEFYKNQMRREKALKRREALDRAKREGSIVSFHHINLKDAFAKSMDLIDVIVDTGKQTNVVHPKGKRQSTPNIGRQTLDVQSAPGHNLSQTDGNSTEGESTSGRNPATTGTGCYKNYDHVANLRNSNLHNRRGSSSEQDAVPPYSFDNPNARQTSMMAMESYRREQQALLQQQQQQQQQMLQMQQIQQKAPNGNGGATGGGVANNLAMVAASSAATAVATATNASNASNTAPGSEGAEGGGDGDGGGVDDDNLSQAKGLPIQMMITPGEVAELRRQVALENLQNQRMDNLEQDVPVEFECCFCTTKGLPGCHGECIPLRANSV
Test: two-microelectrode voltage clamp of native IKS in larval muscle
Format: cell-based

SMILES: NS(=O)(=O)c1ccc(-c2c(-c3ccccc3)noc2C(F)F)cc1 [SC-791]
- IC50: 21 µM
